29 compounds from patent US20240018120A1, “MAGL INHIBITORS” (H. LUNDBECK A/S, priority 2020, published 2024) can be followed below.

For the assay, the target named is T1, MAGL (Homo sapiens, UniProt Q99685).
T1 sequence (Q99685 1-303): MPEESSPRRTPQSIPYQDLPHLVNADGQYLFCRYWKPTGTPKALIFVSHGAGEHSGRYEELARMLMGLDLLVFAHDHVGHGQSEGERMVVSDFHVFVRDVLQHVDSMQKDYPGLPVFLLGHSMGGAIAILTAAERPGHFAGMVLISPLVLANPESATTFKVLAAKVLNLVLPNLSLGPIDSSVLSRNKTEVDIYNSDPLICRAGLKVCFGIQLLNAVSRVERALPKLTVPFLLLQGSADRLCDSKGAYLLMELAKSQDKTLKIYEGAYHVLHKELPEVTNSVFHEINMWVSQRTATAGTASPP
In words: In vitro competitive activity-based protein profiling, PC3 human cell membrane proteomes. The class given is biochemical. The arrangement: endogenous in cells; host or cells: PC3 human cells (membrane proteome). The settings on record: human PC3 membrane proteome. On the procedure:
PC3 human cell membrane proteomes (50 μL, 2.0 mg/mL total protein concentration) were preincubated with varying concentrations of inhibitors at 37° C. After 30 min, the ABPP probe JW912-Bodipy (1.0 μL, 50 μM in DMSO) was added and the mixture was incubated for 30 min at room temperature. Reactions were quenched with SDS loading buffer (15 μL-4×) and run on SDS-PAGE. Following gel imaging, serine hydrolase activity was determined by measuring fluorescent intensity of gel bands corresponding to MAGL using ImageJ 1.43u software. Intensities were converted to percent enzyme activity by normalizing to DMSO controls. IC50 values were determined by fitting percent enzyme activities to a non-linear regression, 4-parameter, sigmoidal dose response function in Prism GraphPad.

In general, IC50 refers to the concentration that inhibits the measured activity by half. High values mean lower potency, low ones higher potency.

For `COc1ccc(NC(=O)[C@@H]2CC23CCN(C(=O)OC(C(F)(F)F)C(F)(F)F)CC3)cn1` (single isomer, unassigned) [Example 36], the IC50 was 0.0051 µM.
The figure for `N#CC1CCN(C(=O)C2CC23CCN(C(=O)OC(C(F)(F)F)C(F)(F)F)CC3)CC1` (single isomer, unassigned) [Example 123, 1,1,1,3,3,3-hexafluoropropan-2-yl (R or S)-1-(4-cyanopiperidine-1-carbonyl)-6-azaspiro[2.5]octane-6-carboxylate] is 0.16 µM.
The figure for `Cc1ncc(NC(=O)C2CC23CCN(C(=O)OC(C(F)(F)F)C(F)(F)F)CC3)cn1` (single isomer, unassigned) [Example 103, 1,1,1,3,3,3-hexafluoropropan-2-yl (R or S)-1-((2-methylpyrimidin-5-yl)carbamoyl)-6-azaspiro[2.5]octane-6-carboxylate] is 0.0033 µM; for `O=C(NCC1CCOCC1)[C@@H]1CC12CCN(C(=O)OC(C(F)(F)F)C(F)(F)F)CC2` (single isomer, unassigned) [Example 118] it is 0.29 µM; for `O=C(NC(=O)C1CC12CCN(C(=O)OC(C(F)(F)F)C(F)(F)F)CC2)C1CCOCC1` (single isomer, unassigned) [Example 26, 1,1,1,3,3,3-Hexafluoropropan-2-yl (R or S)-1-((tetrahydro-2H-pyran-4-carbonyl)carbamoyl)-6-azaspiro[2.5]octane-6-carboxylate] it is 0.016 µM.
As for `O=C(Nc1cnoc1)[C@@H]1CC12CCN(C(=O)OC(C(F)(F)F)C(F)(F)F)CC2` (single isomer, unassigned) [Example 15], the figure is 1 µM.
`CNC(=O)c1ccc(NC(=O)C2CC23CCN(C(=O)OC(C(F)(F)F)C(F)(F)F)CC3)cn1` (single isomer, unassigned) [Example 32, 1,1,1,3,3,3-Hexafluoropropan-2-yl (R or S)-1-((6-(methylcarbamoyl)pyridin-3-yl)carbamoyl)-6-azaspiro[2.5]octane-6-carboxylate] had an IC50 of 0.25 µM.
As for `CC1(NC(=O)C2CC23CCN(C(=O)OC(C(F)(F)F)C(F)(F)F)CC3)CCOCC1` (single isomer, unassigned) [Example 133, 1,1,1,3,3,3-hexafluoropropan-2-yl (R or S)-1-((4-methyltetrahydro-2H-pyran-4-yl)carbamoyl)-6-azaspiro[2.5]octane-6-carboxylate], the figure is 1.6 µM.
As for `CC1(CNC(=O)C2CC23CCN(C(=O)OC(C(F)(F)F)C(F)(F)F)CC3)CCOCC1` (single isomer, unassigned) [Example 169, 1,1,1,3,3,3-hexafluoropropan-2-yl (R or S)-1-(((4-methyltetrahydro-2H-pyran-4-yl)methyl)carbamoyl)-6-azaspiro[2.5]octane-6-carboxylate], the figure is 0.21 µM; as for `CC(=O)Nc1ccc(NC(=O)C2CC23CCN(C(=O)OC(C(F)(F)F)C(F)(F)F)CC3)cn1` (single isomer, unassigned) [Example 172, 1,1,1,3,3,3-hexafluoropropan-2-yl (R or S)-1-((6-acetamidopyridin-3-yl)carbamoyl)-6-azaspiro[2.5]octane-6-carboxylate], 0.13 µM.
The figure for `O=C(NC(=O)C1CC12CCN(C(=O)OC(C(F)(F)F)C(F)(F)F)CC2)C1CCOCC1` (single isomer, unassigned) [Example 27, 1,1,1,3,3,3-Hexafluoropropan-2-yl (R or S)-1-((tetrahydro-2H-pyran-4-carbonyl)carbamoyl)-6-azaspiro[2.5]octane-6-carboxylate] is 0.056 µM; for `Cn1nccc1NC(=O)C1CC12CCN(C(=O)OC(C(F)(F)F)C(F)(F)F)CC2` (single isomer, unassigned) [Example 136, 1,1,1,3,3,3-hexafluoropropan-2-yl (R or S)-1-((1-methyl-1H-pyrazol-5-yl)carbamoyl)-6-azaspiro[2.5]octane-6-carboxylate] it is 0.34 µM.
`O=C(NCc1cccnn1)C1CC12CCN(C(=O)OC(C(F)(F)F)C(F)(F)F)CC2` (single isomer, unassigned) [Example 156, 1,1,1,3,3,3-hexafluoropropan-2-yl (R or S)-1-((pyridazin-3-ylmethyl)carbamoyl)-6-azaspiro[2.5]octane-6-carboxylate]: the 50% inhibitory concentration (IC50) was found to be 0.45 µM.
The figure for `O=C(O)COc1ccc(NC(=O)C2CC23CCN(C(=O)OC(C(F)(F)F)C(F)(F)F)CC3)cn1` (single isomer, unassigned) [Example 184, (R or S)-2-((5-(6-(((1,1,1,3,3,3-hexafluoropropan-2-yl)oxy)carbonyl)-6-azaspiro[2.5]octane-1-carboxamido)pyridin-2-yl)oxy)acetic acid] is 1.4 µM; for `CN1CCC(NC(=O)C2CC23CCN(C(=O)OC(C(F)(F)F)C(F)(F)F)CC3)CC1` (single isomer, unassigned) [Example 114, 1,1,1,3,3,3-hexafluoropropan-2-yl (R or S)-1-((1-methylpiperidin-4-yl)carbamoyl)-6-azaspiro[2.5]octane-6-carboxylate] it is 2.6 µM.
Compound `O=C(Nc1ccnnc1)C1CC12CCN(C(=O)OC(C(F)(F)F)C(F)(F)F)CC2` (single isomer, unassigned) [Example 109, 1,1,1,3,3,3-hexafluoropropan-2-yl (R or S)-1-(pyridazin-4-ylcarbamoyl)-6-azaspiro[2.5]octane-6-carboxylate] yielded a half-maximal inhibitory concentration (IC50) of 0.57 µM.
As for `O=C(Nc1ccncc1)C1CC12CCN(C(=O)OC(C(F)(F)F)C(F)(F)F)CC2` (single isomer, unassigned) [Example 23, 1,1,1,3,3,3-Hexafluoropropan-2-yl (R or S)-1-(pyridin-4-ylcarbamoyl)-6-azaspiro[2.5]octane-6-carboxylate], the figure is 0.2 µM.
As for `COc1ccc(NC(=O)[C@H]2CC23CCN(C(=O)OC(C(F)(F)F)C(F)(F)F)CC3)cn1` (single isomer, unassigned) [Example 37], the figure is 0.0011 µM; as for `N#CC1CCN(C(=O)C2CC23CCN(C(=O)OC(C(F)(F)F)C(F)(F)F)CC3)CC1` (single isomer, unassigned) [Example 124, 1,1,1,3,3,3-hexafluoropropan-2-yl (R or S)-1-(4-cyanopiperidine-1-carbonyl)-6-azaspiro[2.5]octane-6-carboxylate], 0.67 µM.
Take `O=C(NC1CCOCC1)[C@@H]1CC12CCN(C(=O)OC(C(F)(F)F)C(F)(F)F)CC2` [Example 9, 1,1,1,3,3,3-Hexafluoropropan-2-yl (R)-1-((tetrahydro-2H-pyran-4-yl)carbamoyl)-6-azaspiro[2.5]octane-6-carboxylate]: the 50% inhibitory concentration (IC50) was 0.727 µM.
The figure for `O=C(OC(C(F)(F)F)C(F)(F)F)N1CCC2(CC1)CC2C(=O)N1CCOCC1` (single isomer, unassigned) [Example 120, 1,1,1,3,3,3-hexafluoropropan-2-yl (R or S)-1-(morpholine-4-carbonyl)-6-azaspiro[2.5]octane-6-carboxylate] is 0.3 µM; for `Cc1ccc(NC(=O)C2CC23CCN(C(=O)OC(C(F)(F)F)C(F)(F)F)CC3)cc1` (single isomer, unassigned) [Example 145, 1,1,1,3,3,3-hexafluoropropan-2-yl (R or S)-1-(p-tolylcarbamoyl)-6-azaspiro[2.5]octane-6-carboxylate] it is 0.27 µM.
`O=C(Nc1ccon1)C1CC12CCN(C(=O)OC(C(F)(F)F)C(F)(F)F)CC2` (single isomer, unassigned) [Example 177, 1,1,1,3,3,3-hexafluoropropan-2-yl (R or S)-1-(isoxazol-3-ylcarbamoyl)-6-azaspiro[2.5]octane-6-carboxylate] came in with a half-maximal inhibitory concentration (IC50) of 0.29 µM.
The figure for `O=C(Nc1ccccc1)[C@@H]1CC12CCN(C(=O)OC(C(F)(F)F)C(F)(F)F)CC2` (single isomer, unassigned) [Example 142] is 0.13 µM; for `O=C(NCc1cncnc1)C1CC12CCN(C(=O)OC(C(F)(F)F)C(F)(F)F)CC2` (single isomer, unassigned) [Example 153, 1,1,1,3,3,3-hexafluoropropan-2-yl (R or S)-1-((pyrimidin-5-ylmethyl)carbamoyl)-6-azaspiro[2.5]octane-6-carboxylate] it is 0.077 µM.
The figure for `O=C(OC(C(F)(F)F)C(F)(F)F)N1CCC2(CC1)CC2C(=O)N1CCOCC1` (single isomer, unassigned) [Example 121, 1,1,1,3,3,3-hexafluoropropan-2-yl (R or S)-1-(morpholine-4-carbonyl)-6-azaspiro[2.5]octane-6-carboxylate] is 0.42 µM.
The figure for `CN1CCC(NC(=O)C2CC23CCN(C(=O)OC(C(F)(F)F)C(F)(F)F)CC3)CC1` (single isomer, unassigned) [Example 115, 1,1,1,3,3,3-hexafluoropropan-2-yl (R or S)-1-((1-methylpiperidin-4-yl)carbamoyl)-6-azaspiro[2.5]octane-6-carboxylate] is 0.56 µM; for `O=C(NCc1cccnn1)C1CC12CCN(C(=O)OC(C(F)(F)F)C(F)(F)F)CC2` (single isomer, unassigned) [Example 157] it is 0.23 µM; for `O=C(Nc1ccc(C2CC2)nc1)[C@@H]1CC12CCN(C(=O)OC(C(F)(F)F)C(F)(F)F)CC2` (single isomer, unassigned) [Example 162] it is 0.16 µM.
